Data on ten molecules can be found in EP4733388A1, “LACTOBACILLUS RHAMNOSUS STRAIN, VIABLE BACTERIA FORMULATION AND PREPARATION METHOD THEREFOR AND USE THEREOF” (priority 2023, dated 2024).

One test has as its system L. rhamnosus GG strain. Kind of test: Antibiotic susceptibility test, K-B agar method (disc diffusion). In kind it is cell-based, Lactobacillus rhamnosus. Particulars: standard antibiotic disc, 37°C, 48 h; CLSI criteria, breakpoints in mm per antibiotic in c1-c3. The procedure:
(§1) The drug susceptibility test was performed using the K-B agar method recommended by the National Committee for Clinical Laboratory Standards (NCCLS), the drug sensitivity test, as follows: • (1) The commercial strain L. rhamnosus GG strain was selected as the control strain. The L. rhamnosus HOM1213 strain and the GG strain were inoculated in MRS liquid medium at an inoculation amount of 3% of the total amount of the medium, cultured at 37°C for 24 hours, and activated continuously for 3 generations for later use. • (2) 1 mL of bacterial solution (1.5 × 10^8 CFU/mL) and 15 mL of MRS solid medium were mixed, and placed in a sterile culture dish, and mixed uniformly. A standard antibiotic susceptibility testing disc was placed after the plate was solidified, and cultured at 37°C for 48 h, and the diameter of the inhibition zone was measured and recorded.
(§2) Table 3. Results of susceptibility test of L. rhamnosus HOM1213 strain on nine antibiotics.

Test [1] deals with L. rhamnosus HOM1213 strain. The test is described as above. The following applies: for Susceptibility (class by Diameter of Inhibition Zone), HOM1213 Group: standard antibiotic disc, 37°C, 48 h, CLSI criteria, breakpoints in mm per antibiotic in c1-c3; for Susceptibility of L. rhamnosus HOM1213 strain to the antibiotic, in words: summary of Table 3. Format: cell-based, Lactobacillus rhamnosus. On the procedure:
as §1, §2

Test [2] in a line: In vitro antioxidant capacity test: total antioxidant capacity (T-AOC). Particulars: strain suspension 2 × 10^10 CFU/ml; vitamin C 0.05%; mean ± SD. The procedure: (§3) The L. rhamnosus HOM1213 isolated in Example 1 and GG strains were inoculated in an MRS liquid medium at an inoculation amount of 3% of the total amount of the medium, fermented and cultured at 37°C for 24 h, activated continuously for 3 generations. It was centrifuged at 11000 rpm for 10 min, and the bacterial cells were washed with PBS buffer, resuspended and centrifuged, repeated three times. The count of bacteria was adjusted to 2 × 10^10 CFU/ml for later use. Indicators included total antioxidant capacity (T-AOC), superoxide dismutase (SOD), glutathione peroxidase (GSH-Px), glutathione (GSH), hydroxyl radical scavenging test (·OH), and DPPH radical scavenging test. The DPPH free radical scavenging test used a colorimetric method, and its principle was that the free radical scavenger donated an electron to pair with the lone pair electron of the DPPH free radicals, so that its own color changed from purple to yellow. Its absorbance at the wavelength of 517 nm decreased, and the degree of change has a linear relation to the degree of free radical scavenging, that is, the stronger the scavenging ability of the free radical scavenger, the lower the absorbance. Other indicators were determined by using a kit purchased from Nanjing Jiancheng Company, according to operation instructions. […]

Test [3] concerns superoxide dismutase (SOD). Briefly: In vitro antioxidant capacity test: superoxide dismutase (SOD). The following applies: strain suspension 2 × 10^10 CFU/ml; vitamin C 0.05%; mean ± SD. On the procedure: as §3
The test system of another test is glutathione (GSH). Kind of test: In vitro antioxidant capacity test: glutathione (GSH). The following applies: strain suspension 2 × 10^10 CFU/ml; vitamin C 0.05%; mean ± SD. On the procedure:
as §3

The nature of test [4]: Hydroxyl radical scavenging test (·OH). Particulars: strain suspension 2 × 10^10 CFU/ml; vitamin C 0.05%; mean ± SD. The procedure: as §3
Test [5] is described as follows: DPPH radical scavenging test (colorimetric, 517 nm). Particulars: strain suspension 2 × 10^10 CFU/ml; vitamin C 0.05%; mean ± SD. The procedure:
as §3
For Susceptibility (class by Diameter of Inhibition Zone), GG Group in this document: key: S (susceptible) represents sensitivity; I (intermediate) represents moderate sensitivity; R (resistance) represents drug resistance.
For Susceptibility (class by Diameter of Inhibition Zone), HOM1213 Group in this document: key: S (susceptible) represents sensitivity; I (intermediate) represents moderate sensitivity; R (resistance) represents drug resistance.

For `CC1(C)S[C@@H]2[C@H](NC(=O)[C@H](N)c3ccccc3)C(=O)N2[C@H]1C(=O)O` [Ampicillin], the “Susceptibility (class by Diameter of Inhibition Zone), GG Group” value in the test on L. rhamnosus GG strain is recorded as “R”. In addition, in test [1], the “Susceptibility (class by Diameter of Inhibition Zone), HOM1213 Group” value is on record as “R” and the “Susceptibility of L. rhamnosus HOM1213 strain to the antibiotic, in words” value (“Susceptibility … in words” for short) is “resistant”.

As to `O=C(N[C@H](CO)[C@H](O)c1ccc([N+](=O)[O-])cc1)C(Cl)Cl` [Chloramphenicol], the “Susceptibility (class by Diameter of Inhibition Zone), GG Group” value in the test on L. rhamnosus GG strain was “S”. In addition, in test [1], the “Susceptibility (class by Diameter of Inhibition Zone), HOM1213 Group” value is recorded as “S”.

In the case of `CCC[C@@H]1C[C@@H](C(=O)N[C@@H]([C@H]2O[C@H](SC)[C@H](O)[C@@H](O)[C@H]2O)[C@H](C)Cl)N(C)C1` [Clindamycin], in the test with L. rhamnosus GG strain, the “Susceptibility (class by Diameter of Inhibition Zone), GG Group” value is “S”. In test [1], the “Susceptibility (class by Diameter of Inhibition Zone), HOM1213 Group” value is recorded as “S”.

For `CC[C@H]1OC(=O)[C@H](C)[C@@H](O[C@H]2C[C@@](C)(OC)[C@@H](O)[C@H](C)O2)[C@H](C)[C@@H](O[C@@H]2O[C@H](C)C[C@H](N(C)C)[C@H]2O)[C@](C)(O)C[C@@H](C)C(=O)[C@H](C)[C@@H](O)[C@]1(C)O` [Erythromycin], the “Susceptibility (class by Diameter of Inhibition Zone), GG Group” value in the test with L. rhamnosus GG strain was “S”. The “Susceptibility (class by Diameter of Inhibition Zone), HOM1213 Group” value in test [1] was “S”.

For `NC[C@H]1O[C@H](O[C@H]2[C@H](O)[C@@H](O[C@H]3O[C@H](CO)[C@@H](O)[C@H](N)[C@H]3O)[C@H](N)C[C@@H]2N)[C@H](O)[C@@H](O)[C@@H]1O` [Kanamycin], the “Susceptibility (class by Diameter of Inhibition Zone), GG Group” value in the test on L. rhamnosus GG strain is listed as “R”. Besides, in test [1], the “Susceptibility (class by Diameter of Inhibition Zone), HOM1213 Group” value is “R”.

With `[H]/N=C(/N)N[C@H]1[C@H](O)[C@@H](O)[C@H](O[C@@H]2O[C@@H](C)[C@](O)(C=O)[C@H]2O[C@@H]2O[C@@H](CO)[C@H](O)[C@@H](O)[C@@H]2NC)[C@@H](N/C(N)=N\[H])[C@@H]1O` [Streptomycin], the “Susceptibility (class by Diameter of Inhibition Zone), GG Group” value in the test with L. rhamnosus GG strain is “I”. For the same molecule, in test [1], the “Susceptibility (class by Diameter of Inhibition Zone), HOM1213 Group” value is reported as “I” and the “Susceptibility … in words” value is recorded as “moderately resistant”.

Regarding `CN(C)[C@@H]1C(O)=C(C(N)=O)C(=O)[C@@]2(O)C(O)=C3C(=O)c4c(O)cccc4[C@@](C)(O)[C@H]3C[C@@H]12` [Tetracycline], the “Susceptibility (class by Diameter of Inhibition Zone), GG Group” value with L. rhamnosus GG strain is “S”. Moreover, the “Susceptibility (class by Diameter of Inhibition Zone), HOM1213 Group” value in test [1] is listed as “S”.

In the case of `CN[C@H](CC(C)C)C(=O)N[C@H]1C(=O)N[C@@H](CC(N)=O)C(=O)N[C@H]2C(=O)N[C@H]3C(=O)N[C@H](C(=O)N[C@H](C(=O)O)c4cc(O)cc(O)c4-c4cc3ccc4O)[C@H](O)c3ccc(c(Cl)c3)Oc3cc2cc(c3O[C@@H]2O[C@H](CO)[C@@H](O)[C@H](O)[C@H]2O[C@H]2C[C@](C)(N)[C@H](O)[C@H](C)O2)Oc2ccc(cc2Cl)[C@H]1O` [Vancomycin], the “Susceptibility (class by Diameter of Inhibition Zone), GG Group” value in the test with L. rhamnosus GG strain is reported as “R”. Also, in test [1], the “Susceptibility (class by Diameter of Inhibition Zone), HOM1213 Group” value is “R” and the “Susceptibility … in words” value is on record as “resistant”.

In test [2], `O=C1O[C@H]([C@@H](O)CO)C(O)=C1O` [Vitamin C] gave a T-AOC of 16.90±1.42 U/mL. In addition, the SOD in test [3] is recorded as 18.07±1.08 U/mL. Further, in the test with glutathione (GSH), the GSH was determined as 0.33±0.06 mgGSH/L. Further, in test [4], the “·OH Scavenging Rate (%)” value is on record as 36.70±1.33%. In test [5], the “DPPH Scavenging Rate (%)” value came out at 96.14±0.08%.

In the case of Gentamicin, the “Susceptibility (class by Diameter of Inhibition Zone), GG Group” value with L. rhamnosus GG strain was “R”. In test [1], the “Susceptibility (class by Diameter of Inhibition Zone), HOM1213 Group” value is on record as “R” and the “Susceptibility … in words” value is given as “resistant”.
